Values belong to the molecule of their own block, whether it stands above or below them. Active and inactive are the calls of the source. The rule behind the calls is not given here.
Tests used:
[1] = target: T1, Toll-like receptor 9 (Homo sapiens) (UniProt Q9NR96); assay: Inhibition of human TLR9 activation expressed in HEK293 cells assessed as reduction in ODN2006-induced NF-kB activation up to 5 uM after 18 hrs by luciferase reporter gene assay; assay type: cell-based
T1 sequence (whole entry): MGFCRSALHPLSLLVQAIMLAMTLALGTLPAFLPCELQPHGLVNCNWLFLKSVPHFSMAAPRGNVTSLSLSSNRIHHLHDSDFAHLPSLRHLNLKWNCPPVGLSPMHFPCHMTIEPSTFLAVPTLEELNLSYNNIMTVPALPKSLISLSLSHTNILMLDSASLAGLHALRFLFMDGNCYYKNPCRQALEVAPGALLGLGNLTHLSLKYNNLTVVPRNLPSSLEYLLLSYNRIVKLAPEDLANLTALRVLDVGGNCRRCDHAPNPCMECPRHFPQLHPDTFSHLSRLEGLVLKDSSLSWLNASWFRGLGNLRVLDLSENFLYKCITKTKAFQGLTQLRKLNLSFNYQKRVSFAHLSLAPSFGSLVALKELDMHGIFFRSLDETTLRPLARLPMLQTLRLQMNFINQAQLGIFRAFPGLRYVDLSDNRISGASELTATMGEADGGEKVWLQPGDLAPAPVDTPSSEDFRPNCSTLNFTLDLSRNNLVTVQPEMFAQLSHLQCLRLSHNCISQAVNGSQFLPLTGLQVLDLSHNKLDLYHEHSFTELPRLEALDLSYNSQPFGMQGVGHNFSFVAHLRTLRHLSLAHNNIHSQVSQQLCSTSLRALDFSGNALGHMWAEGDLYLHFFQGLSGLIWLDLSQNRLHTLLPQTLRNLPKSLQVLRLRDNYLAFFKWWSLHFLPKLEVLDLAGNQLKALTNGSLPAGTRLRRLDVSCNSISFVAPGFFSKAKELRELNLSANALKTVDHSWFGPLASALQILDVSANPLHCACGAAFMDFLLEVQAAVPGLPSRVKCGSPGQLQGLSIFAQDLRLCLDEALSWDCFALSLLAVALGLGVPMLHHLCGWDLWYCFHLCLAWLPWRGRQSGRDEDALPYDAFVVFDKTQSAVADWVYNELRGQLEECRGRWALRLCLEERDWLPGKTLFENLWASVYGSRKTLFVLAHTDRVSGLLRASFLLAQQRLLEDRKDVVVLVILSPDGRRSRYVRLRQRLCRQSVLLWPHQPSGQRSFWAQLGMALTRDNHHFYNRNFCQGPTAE

[2] = Binding affinity to synthetic ODN2216 at 0.01 mol/dm3 at pH 5.7 by fluorescence spectroscopic method
[3] = Solubility of the compound in water; assay type: physicochemical; details: buffer
[4] = target: Toll-like receptor 3 (Homo sapiens) (UniProt O15455); assay: Inhibition of human TLR3 expressed in HEK293 cells assessed as reduction in poly(I:C)-induced NF-kB activation up to 5 uM after 18 hrs by luciferase reporter gene assay; assay type: cell-based
[5] = target: T1, Toll-like receptor 9 (Homo sapiens); assay: Inhibition of TLR9 in human PBMC assessed as reduction in ODN2216-stimulated IFNalpha expression at 1 to 10 uM by ELISA
PBMC [6] = assay: Immunomodulatory activity in human PBMC assessed as induction of TNFalpha secretion at 10 uM after 24 hrs by ELISA; assay type: functional, cell-based
PBMC [7] = assay: Immunomodulatory activity in human PBMC assessed as induction of IL-6 secretion at 10 uM after 24 hrs by ELISA; assay type: functional, cell-based
THP-1 = assay: Cytotoxicity against human THP1 cells assessed as reduction in cell viability up to 10 uM after 24 hrs by MTT assay; assay type: cell-based; details: thp-1, 24 h
[8] = Binding affinity to synthetic ODN2216 assessed as negative ICD band around 240 to 340 nm at 3 x 10^5 10^-6mol/dm3 at pH 5.7 by CD spectroscopic method
[9] = Binding affinity to synthetic ODN2006 at 0.01 mol/dm3 at pH 5.7 by fluorescence spectroscopic method
[10] = target: T2, Toll-like receptor 8 (Homo sapiens) (UniProt Q9NR97); assay: Activation of human TLR8 expressed in HEK293 cells assessed as induction of NF-kB at 0.1 to 5 uM after 18 hrs by luciferase reporter gene assay; assay type: cell-based
T2 sequence (whole entry): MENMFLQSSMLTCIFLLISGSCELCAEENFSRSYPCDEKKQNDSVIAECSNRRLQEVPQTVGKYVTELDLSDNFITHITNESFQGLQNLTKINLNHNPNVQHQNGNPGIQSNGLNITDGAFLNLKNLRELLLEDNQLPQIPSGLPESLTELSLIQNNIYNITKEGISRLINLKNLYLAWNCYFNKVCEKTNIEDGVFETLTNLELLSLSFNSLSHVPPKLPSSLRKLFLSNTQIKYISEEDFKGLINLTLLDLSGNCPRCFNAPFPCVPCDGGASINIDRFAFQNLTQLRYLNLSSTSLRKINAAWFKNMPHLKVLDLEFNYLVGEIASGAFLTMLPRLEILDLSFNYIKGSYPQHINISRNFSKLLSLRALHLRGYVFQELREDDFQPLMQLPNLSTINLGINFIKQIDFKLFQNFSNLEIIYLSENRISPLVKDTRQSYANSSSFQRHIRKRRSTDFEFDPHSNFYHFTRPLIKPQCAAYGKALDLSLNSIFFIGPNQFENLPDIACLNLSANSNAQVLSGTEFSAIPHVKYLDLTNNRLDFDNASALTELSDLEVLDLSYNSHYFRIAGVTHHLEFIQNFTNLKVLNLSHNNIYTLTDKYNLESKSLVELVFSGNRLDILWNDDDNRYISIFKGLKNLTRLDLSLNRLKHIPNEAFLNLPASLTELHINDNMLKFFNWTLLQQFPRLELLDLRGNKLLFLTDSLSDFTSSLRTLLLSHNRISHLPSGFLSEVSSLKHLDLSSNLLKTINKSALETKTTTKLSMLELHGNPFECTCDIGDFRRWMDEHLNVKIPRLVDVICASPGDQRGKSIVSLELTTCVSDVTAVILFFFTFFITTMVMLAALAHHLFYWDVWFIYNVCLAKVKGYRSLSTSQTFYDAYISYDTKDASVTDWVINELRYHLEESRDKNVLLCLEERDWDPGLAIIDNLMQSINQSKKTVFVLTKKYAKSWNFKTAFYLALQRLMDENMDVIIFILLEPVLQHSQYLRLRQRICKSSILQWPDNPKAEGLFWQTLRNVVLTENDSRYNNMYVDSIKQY

PBMC [11] = assay: Immunomodulatory activity in human PBMC assessed as induction of IL-8 secretion after 24 hrs by ELISA; assay type: functional, cell-based
[12] = Binding affinity to synthetic ODN2006 at 0.01 mol/dm3 at pH 7 by fluorescence spectroscopic method
[13] = target: T1, Toll-like receptor 9 (Homo sapiens); assay: Inhibition of TLR9 in PMA-induc ed human THP1 cells assessed as reduction in ODN2216-induced TNFalpha by ELISA
HEK293 = assay: Cytotoxicity against HEK293 cells assessed as reduction in cell viability up to 10 uM after 24 hrs by MTT assay; assay type: cell-based; details: human, hek293, 24 h
PBMC [14] = assay: Cytotoxicity against human PBMC assessed as reduction in cell viability up to 10 uM after 24 hrs by MTT assay; assay type: cell-based
[15] = target: Toll-like receptor 3 (Homo sapiens) (UniProt O15455); assay: Inhibition of TLR3 in human PBMC assessed as reduction in poly(I:C)-stimulated IL-6 expression at 1 to 10 uM by ELISA relative to control
[16] = Binding affinity to synthetic ODN2006 assessed as ratio of fluorescence intensity of compound-ODN complex to fluorescence intensity of compound at 0.01 mol/dm3 at pH 5.7 by fluorescence spectroscopic method
[17] = Binding affinity to synthetic ODN2216 assessed as negative ICD band around 240 to 340 nm at 3 x 10^5 10^-6mol/dm3 at pH 7 by CD spectroscopic method
[18] = Binding affinity to synthetic ODN2006 assessed as ICD band around 300 nm at 3 x 10^5 10^-6mol/dm3 at pH 5.7 by CD spectroscopic method
[19] = target: T1, Toll-like receptor 9 (Homo sapiens); assay: Inhibition of TLR9 in human PBMC assessed as reduction in ODN2006-stimulated IL-8 expression at 1 to 10 uM by ELISA
[20] = target: Toll-like receptor 3 (Homo sapiens) (UniProt O15455); assay: Inhibition of TLR3 in human PBMC assessed as reduction in poly(I:C)-stimulated IL-6 expression at 1 uM by ELISA relative to control
[21] = Binding affinity to synthetic ODN2006 assessed as ratio of fluorescence intensity of compound-ODN complex to fluorescence intensity of compound at 0.01 mol/dm3 at pH 7 by fluorescence spectroscopic method
PBMC [22] = assay: Immunomodulatory activity in human PBMC assessed as induction of INFalpha secretion at 10 uM after 24 hrs by ELISA; assay type: functional, cell-based
[23] = target: T3, Toll-like receptor 7 (Homo sapiens) (UniProt Q9NYK1); assay: Activation of human TLR7 expressed in HEK293 cells assessed as induction of NF-kB at 0.1 to 5 uM after 18 hrs by luciferase reporter gene assay; assay type: cell-based
T3 sequence (whole entry): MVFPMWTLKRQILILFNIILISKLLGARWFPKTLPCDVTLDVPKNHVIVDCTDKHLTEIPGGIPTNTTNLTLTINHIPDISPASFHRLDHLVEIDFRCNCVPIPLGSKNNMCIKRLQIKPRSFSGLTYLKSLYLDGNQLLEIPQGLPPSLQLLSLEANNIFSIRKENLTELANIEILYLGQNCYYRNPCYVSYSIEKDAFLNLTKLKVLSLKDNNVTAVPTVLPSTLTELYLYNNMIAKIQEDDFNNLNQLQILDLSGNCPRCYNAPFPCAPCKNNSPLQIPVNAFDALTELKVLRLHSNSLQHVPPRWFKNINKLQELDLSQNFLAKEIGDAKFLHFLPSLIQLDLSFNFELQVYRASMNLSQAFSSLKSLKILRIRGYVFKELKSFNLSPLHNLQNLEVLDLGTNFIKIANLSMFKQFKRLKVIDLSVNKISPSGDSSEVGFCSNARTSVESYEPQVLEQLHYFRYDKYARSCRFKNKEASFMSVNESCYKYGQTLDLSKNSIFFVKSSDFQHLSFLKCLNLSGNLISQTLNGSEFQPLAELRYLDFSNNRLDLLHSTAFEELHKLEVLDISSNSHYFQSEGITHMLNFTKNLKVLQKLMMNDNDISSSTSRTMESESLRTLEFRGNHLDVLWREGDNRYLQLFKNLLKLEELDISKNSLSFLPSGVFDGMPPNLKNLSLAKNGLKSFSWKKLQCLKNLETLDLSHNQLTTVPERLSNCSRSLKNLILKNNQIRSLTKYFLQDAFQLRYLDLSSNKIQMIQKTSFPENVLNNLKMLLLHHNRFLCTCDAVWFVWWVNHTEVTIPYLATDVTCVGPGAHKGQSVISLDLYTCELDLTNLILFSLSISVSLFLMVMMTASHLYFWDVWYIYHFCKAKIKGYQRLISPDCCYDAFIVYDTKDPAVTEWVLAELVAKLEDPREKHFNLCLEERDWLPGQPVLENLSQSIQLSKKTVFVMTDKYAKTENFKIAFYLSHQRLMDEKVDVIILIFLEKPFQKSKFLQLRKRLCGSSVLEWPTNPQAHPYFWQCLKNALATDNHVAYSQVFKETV

PBMC [24] = assay: Immunomodulatory activity in human PBMC assessed as induction of IL-1beta secretion at 10 uM after 24 hrs by ELISA; assay type: functional, cell-based
[25] = Binding affinity to synthetic ODN2006 assessed as ICD band around 301 nm at 3 x 10^5 10^-6mol/dm3 at pH 7 by CD spectroscopic method
[26] = Binding affinity to synthetic ODN2216 assessed as ratio of fluorescence intensity of compound-ODN complex to fluorescence intensity of compound at 0.01 mol/dm3 at pH 5.7 by fluorescence spectroscopic method
[27] = target: T3, Toll-like receptor 7 (Homo sapiens); assay: Activation of human TLR7 expressed in HEK293 cell assessed as induction of NF-kB after 18 hrs by luciferase reporter gene assay; assay type: cell-based
[28] = target: T2, Toll-like receptor 8 (Homo sapiens); assay: Activation of human TLR8 expressed in HEK293 cells assessed as induction of NF-kB after 18 hrs by luciferase reporter gene assay; assay type: cell-based
PBMC [29] = assay: Immunomodulatory activity in human PBMC assessed as induction of IL-6 secretion at 16 uM after 24 hrs by ELISA; assay type: functional, cell-based
PBMC [30] = assay: Immunomodulatory activity in human PBMC assessed as induction of IL-6 secretion at 5 uM after 24 hrs by ELISA; assay type: functional, cell-based

Chain of Toll-like receptor 3 (Homo sapiens) (O15455 whole entry): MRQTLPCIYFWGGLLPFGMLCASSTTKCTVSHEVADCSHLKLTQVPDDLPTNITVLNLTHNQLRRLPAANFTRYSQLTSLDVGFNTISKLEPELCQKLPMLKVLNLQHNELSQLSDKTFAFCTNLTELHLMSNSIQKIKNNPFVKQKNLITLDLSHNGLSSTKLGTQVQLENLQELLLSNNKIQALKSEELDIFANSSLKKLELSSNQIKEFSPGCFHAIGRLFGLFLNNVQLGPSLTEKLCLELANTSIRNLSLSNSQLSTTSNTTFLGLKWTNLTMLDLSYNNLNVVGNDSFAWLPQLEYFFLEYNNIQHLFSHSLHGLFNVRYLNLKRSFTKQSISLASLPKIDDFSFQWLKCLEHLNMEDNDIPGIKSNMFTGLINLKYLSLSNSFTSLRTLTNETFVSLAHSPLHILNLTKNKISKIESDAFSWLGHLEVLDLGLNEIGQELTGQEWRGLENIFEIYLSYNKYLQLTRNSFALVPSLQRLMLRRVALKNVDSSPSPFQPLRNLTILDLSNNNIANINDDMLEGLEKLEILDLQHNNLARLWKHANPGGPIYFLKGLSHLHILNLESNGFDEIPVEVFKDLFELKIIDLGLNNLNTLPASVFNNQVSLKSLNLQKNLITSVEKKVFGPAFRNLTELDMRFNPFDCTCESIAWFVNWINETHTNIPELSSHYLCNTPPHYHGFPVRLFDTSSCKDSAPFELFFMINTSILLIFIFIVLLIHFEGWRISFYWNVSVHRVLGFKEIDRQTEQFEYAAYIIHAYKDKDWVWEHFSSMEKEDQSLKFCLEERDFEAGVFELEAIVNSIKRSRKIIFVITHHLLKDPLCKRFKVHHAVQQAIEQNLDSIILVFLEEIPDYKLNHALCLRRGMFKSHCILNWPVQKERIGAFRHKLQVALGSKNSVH

inhibition [1]: Active
log Ks [2]: 4.04
solubility [3]: Insoluble
inhibition [4]: Active
inhibition [5]: Active
Activity [8]: Active
log Ks [9]: 4.5
Activity [10]: inactive
log Ks [12]: 5.4
inhibition [13]: Dose-dependent effect
inhibition [15]: Active
Ratio [16]: 0.2
Activity [17]: Active
Activity [18]: inactive
inhibition [19]: inactive
inhibition [20]: 50%
Ratio [21]: 0.6
Activity [23]: inactive
Activity [25]: Active
Ratio [26]: 0.73
SMILES: CCNC(=O)Nc1ccc2c(c1)c(C)nc1ccccc12
Activity (PBMC [6]): Active
Activity (PBMC [7]): Active
Activity (THP-1): Non-Toxic
Activity (PBMC [11]): Dose-dependent effect
Activity (HEK293): Non-Toxic
Activity (PBMC [14]): Non-Toxic
Activity (PBMC [22]): inactive
Activity (PBMC [24]): inactive

Activity [27]: Active
Activity [28]: Active
SMILES: CCOCc1nc2c(N)nc3ccccc3c2[nH]1

SMILES: CCOCc1nc2c(N)nc3ccccc3c2n1CC(C)(C)O
Activity (PBMC [29]): Active

SMILES: CC(C)Cn1cnc2c(N)nc3ccccc3c21
Activity (PBMC [30]): Active
